Measurements as given in patent US8119819B2 (Chugai Seiyaku Kabushiki Kaisha, priority 2001, dated 2012).

target: T1, malonyl-CoA decarboxylase prepared from rat heart (Rattus norvegicus, UniProt Q920F5); experiment: In Vitro MCD inhibitory assay (spectrophotometric, 96 well); format: biochemical; settings: read-out: IC50 of the MCD inhibitors
T1 construct: malonyl-CoA decarboxylase prepared from rat heart; from tissue; host or cells: rat heart
T1 sequence (Q920F5 39-492): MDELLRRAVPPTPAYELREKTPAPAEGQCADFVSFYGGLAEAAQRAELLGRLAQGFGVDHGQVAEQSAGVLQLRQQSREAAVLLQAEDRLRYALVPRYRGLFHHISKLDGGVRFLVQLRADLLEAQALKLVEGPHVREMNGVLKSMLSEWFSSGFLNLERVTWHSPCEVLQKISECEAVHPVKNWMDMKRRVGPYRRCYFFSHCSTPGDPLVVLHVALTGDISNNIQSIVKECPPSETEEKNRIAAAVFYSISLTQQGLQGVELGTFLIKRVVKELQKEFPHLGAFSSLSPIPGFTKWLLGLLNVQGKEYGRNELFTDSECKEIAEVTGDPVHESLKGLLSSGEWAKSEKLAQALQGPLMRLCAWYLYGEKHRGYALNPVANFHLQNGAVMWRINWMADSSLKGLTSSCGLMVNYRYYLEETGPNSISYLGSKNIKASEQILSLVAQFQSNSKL
Experimental: The following reagents are added into a 96 well titer plate: Tris-HCl buffer, 20 μL; DTE, 10 μL; 1-malate, 20 μL; NAD, 10 μL; NADH, 25 μL; water, 80 μL; malic dehydrogenase, 5 μL. The contents are mixed and incubated for 2 min followed by the addition of 5 μL of citrate synthase.

Row | Compound | IC50
1 | CN(CC#CC(O)(C(F)(F)F)C(F)(F)F)C(=O)CCc1ccccc1 [Example 7-1, N-methyl-3-phenyl-N-[5,5,5-trifluoro-4-hydroxy-4-(trifluoromethyl)pent-2-ynyl]propanamide] | 739 nM
2 | OC(C1CC(N2CCCC2)=NO1)(C(F)(F)F)C(F)(F)F (stereo not drawn) [Example 9-2, 1,1,1,3,3,3-hexafluoro-2-(3-pyrrolidin-1-4,5-dihydroisoxazol-5-yl)propan-2-ol] | 3710 nM

Results, then the molecule that gave them:

Row | IC50 | Compound
3 | 463 nM | O=CN(Cc1ccncc1)c1ncc(C(O)(C(F)(F)F)C(F)(F)F)s1 [Example 1-4, pyridin-4-yl methyl {5-[2,2,2-trifluoro-1-hydroxy-1-(trifluoromethyl)ethyl]-1,3-thiazol-2-yl}formamide]
4 | 388 nM | Cc1ccc(C2=NOC(C(O)(C(F)(F)F)C(F)(F)F)C2)cc1 (stereo not drawn) [Example 11-1, 1,1,1,3,3,3-hexafluoro-2-[3-(4-methylphenyl)-4,5-dihydroisoxazol-5-yl]propan-2-ol]
5 | 213 nM | CCCCN(C(=O)NCC)c1ncc(C(O)(C(F)(F)F)C(F)(F)F)s1 [Example 1-3-1, N-butyl-N′-ethyl-N-{5-[2,2,2-trifluoro-1-hydroxy-1-(trifluoromethyl)ethyl]-1,3-thiazol-2-yl}urea]
6 | 127 nM | CC(C)N(C(=O)C1=NOC(C(O)(C(F)(F)F)C(F)(F)F)C1)C(C)C (stereo not drawn) [Example 8-3-3]
7 | 124 nM | O=S(=O)(Nc1ncc(C(O)(C(F)(F)F)C(F)(F)F)s1)c1ccc(Cl)cc1 [Example 3, 4-chloro-N-{5-[2,2,2,-trifluoro-1-hydroxy-1-(trifluoromethyl)ethyl]-1,3-thiazol-2-yl}benzenesulfonamide]

system: human breast cancer cells; experiment: not given; settings: breast carcinoma cells; cited from earlier work

Row | Compound | malonyl-CoA level
8 | CCCCCCCCCCCCCCOc1ccc(C(=O)O)o1 [TOFA, 5-(tetradecyloxy)-2-furoic acid] | 60 % of the control

same assay, conditions: human breast cancer cells and xenografts; cited from earlier work

Row | Compound | antitumor activity
9 | CCCCCCCCCCCCCCOc1ccc(C(=O)O)o1 [TOFA, 5-(tetradecyloxy)-2-furoic acid] | does not show any antitumor activity
